Assays:
Format in all cases: cell-based
human TLR8 = target: T1, human TLR8 (Homo sapiens, UniProt Q9NR97); experiment: TLR8 inhibition reporter assay (HEK-Blue, SEAP); settings: HEK-Blue cells overexpressing human TLR8, R848 15.9 μM, 22 hour incubation
T1 construct: host or cells: HEK-Blue cells
T1 sequence (Q9NR97 27-1041): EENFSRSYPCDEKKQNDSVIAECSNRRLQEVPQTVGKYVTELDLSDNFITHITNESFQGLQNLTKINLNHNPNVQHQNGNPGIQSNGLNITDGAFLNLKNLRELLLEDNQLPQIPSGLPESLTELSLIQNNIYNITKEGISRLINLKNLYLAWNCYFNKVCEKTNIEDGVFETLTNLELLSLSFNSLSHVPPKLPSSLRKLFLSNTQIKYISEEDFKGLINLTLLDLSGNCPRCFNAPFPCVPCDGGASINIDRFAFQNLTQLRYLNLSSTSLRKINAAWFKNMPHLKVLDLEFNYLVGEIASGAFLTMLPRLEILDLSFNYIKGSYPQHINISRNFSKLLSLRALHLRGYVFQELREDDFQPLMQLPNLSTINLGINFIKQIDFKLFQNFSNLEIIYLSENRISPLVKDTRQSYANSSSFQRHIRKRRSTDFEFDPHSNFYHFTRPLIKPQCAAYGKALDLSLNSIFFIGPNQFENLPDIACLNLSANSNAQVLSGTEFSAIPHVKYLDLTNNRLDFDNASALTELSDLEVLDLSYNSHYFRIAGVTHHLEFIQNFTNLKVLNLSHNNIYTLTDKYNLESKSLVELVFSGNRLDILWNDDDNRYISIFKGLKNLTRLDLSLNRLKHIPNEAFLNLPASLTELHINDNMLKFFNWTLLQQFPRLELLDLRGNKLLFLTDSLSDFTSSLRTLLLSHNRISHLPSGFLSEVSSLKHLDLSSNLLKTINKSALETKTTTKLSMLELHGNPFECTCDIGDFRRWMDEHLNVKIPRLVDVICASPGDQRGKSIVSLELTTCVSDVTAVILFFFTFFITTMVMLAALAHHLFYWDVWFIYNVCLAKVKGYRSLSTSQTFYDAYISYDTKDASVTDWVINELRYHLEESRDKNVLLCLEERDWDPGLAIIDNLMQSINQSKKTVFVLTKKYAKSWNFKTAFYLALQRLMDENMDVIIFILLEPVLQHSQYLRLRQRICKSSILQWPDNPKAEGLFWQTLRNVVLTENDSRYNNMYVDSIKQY
How it was run: (§1)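 Agonists used: gardiquimod 7.5 μM (TLR7), R848 15.9 μM (TLR8), ODN2006 5 nM (TLR9), added after 30 min room-temperature compound pre-treatment (0.05 nM–50 μM) of receptor-overexpressing HEK-Blue cells. SEAP reporter (NF-κB/AP-1 driven) read after 22 h at 37 °C; inhibition scaled between agonist+DMSO and reference-inhibitor wells.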

human TLR7 = target: T2, human TLR7 (Homo sapiens, UniProt Q9NYK1); experiment: TLR7 inhibition reporter assay (HEK-Blue, SEAP); settings: HEK-Blue cells overexpressing human TLR7, gardiquimod 7.5 μM, 22 hour incubation
T2 construct: host or cells: HEK-Blue cells
T2 sequence (Q9NYK1 27-1049): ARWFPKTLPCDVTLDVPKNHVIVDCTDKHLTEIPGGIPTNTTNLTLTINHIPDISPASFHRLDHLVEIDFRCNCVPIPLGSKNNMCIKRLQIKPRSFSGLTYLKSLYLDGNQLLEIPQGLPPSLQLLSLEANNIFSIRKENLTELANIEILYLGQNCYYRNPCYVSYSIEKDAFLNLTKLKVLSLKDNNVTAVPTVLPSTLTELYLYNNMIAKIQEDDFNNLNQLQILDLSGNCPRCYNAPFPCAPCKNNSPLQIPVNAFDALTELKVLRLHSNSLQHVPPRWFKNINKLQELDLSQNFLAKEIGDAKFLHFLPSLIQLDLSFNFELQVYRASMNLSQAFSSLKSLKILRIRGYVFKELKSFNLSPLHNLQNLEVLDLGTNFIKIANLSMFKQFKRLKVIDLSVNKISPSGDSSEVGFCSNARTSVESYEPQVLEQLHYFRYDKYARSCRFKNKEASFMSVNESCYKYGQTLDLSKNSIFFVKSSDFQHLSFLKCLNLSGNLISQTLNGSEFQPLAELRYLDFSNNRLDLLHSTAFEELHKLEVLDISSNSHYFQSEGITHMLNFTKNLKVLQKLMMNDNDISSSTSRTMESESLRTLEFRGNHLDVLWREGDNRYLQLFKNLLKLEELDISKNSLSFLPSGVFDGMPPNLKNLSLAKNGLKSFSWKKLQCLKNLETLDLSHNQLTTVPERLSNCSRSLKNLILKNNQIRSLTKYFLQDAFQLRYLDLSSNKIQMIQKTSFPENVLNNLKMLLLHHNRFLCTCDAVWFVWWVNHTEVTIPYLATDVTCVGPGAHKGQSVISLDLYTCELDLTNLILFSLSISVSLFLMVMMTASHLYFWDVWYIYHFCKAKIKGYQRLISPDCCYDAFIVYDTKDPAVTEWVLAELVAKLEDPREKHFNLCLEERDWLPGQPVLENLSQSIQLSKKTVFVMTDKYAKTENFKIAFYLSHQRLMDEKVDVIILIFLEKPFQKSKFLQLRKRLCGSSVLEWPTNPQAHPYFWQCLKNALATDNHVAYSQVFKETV
How it was run: as §1

human TLR9 = target: T3, human TLR9 (Homo sapiens, UniProt Q9NR96); experiment: TLR9 inhibition reporter assay (HEK-Blue, SEAP); settings: HEK-Blue cells overexpressing human TLR9, ODN2006 5 nM, 22 hour incubation
T3 construct: host or cells: HEK-Blue cells
T3 sequence (Q9NR96 26-1032): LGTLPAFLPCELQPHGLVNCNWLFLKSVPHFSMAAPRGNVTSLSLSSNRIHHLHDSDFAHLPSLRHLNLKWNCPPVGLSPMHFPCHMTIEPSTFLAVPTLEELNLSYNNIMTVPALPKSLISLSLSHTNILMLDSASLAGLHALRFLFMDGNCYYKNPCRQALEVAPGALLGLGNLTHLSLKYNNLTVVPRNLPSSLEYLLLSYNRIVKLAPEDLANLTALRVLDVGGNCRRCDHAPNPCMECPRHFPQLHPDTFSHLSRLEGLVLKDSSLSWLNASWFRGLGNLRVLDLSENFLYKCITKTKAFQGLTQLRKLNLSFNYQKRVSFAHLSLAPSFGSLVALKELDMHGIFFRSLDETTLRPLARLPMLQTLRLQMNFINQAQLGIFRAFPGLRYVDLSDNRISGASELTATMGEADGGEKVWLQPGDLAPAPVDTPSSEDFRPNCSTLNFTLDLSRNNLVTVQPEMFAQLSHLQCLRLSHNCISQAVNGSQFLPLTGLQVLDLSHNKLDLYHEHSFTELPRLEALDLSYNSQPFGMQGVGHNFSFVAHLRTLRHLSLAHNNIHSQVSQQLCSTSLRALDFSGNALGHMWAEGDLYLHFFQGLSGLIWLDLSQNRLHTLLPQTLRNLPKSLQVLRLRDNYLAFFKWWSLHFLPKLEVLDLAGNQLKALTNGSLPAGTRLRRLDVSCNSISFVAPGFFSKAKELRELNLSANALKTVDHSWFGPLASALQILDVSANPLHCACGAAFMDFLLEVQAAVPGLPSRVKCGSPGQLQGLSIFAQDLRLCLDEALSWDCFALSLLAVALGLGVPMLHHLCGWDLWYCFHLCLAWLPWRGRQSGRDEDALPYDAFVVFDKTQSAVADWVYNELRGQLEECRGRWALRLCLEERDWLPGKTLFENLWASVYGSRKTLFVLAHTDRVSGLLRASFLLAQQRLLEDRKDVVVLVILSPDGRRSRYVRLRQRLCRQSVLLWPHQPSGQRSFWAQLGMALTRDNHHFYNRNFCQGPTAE
How it was run: as §1

IC50 (human TLR8) [nM] | IC50 (human TLR7) [nM] | IC50 (human TLR9) [nM] | Structure (SMILES)
9.5 | 1.9 | 4240 | Cc1c(-c2[nH]c3ccc(C4CCN(CC(=O)N(C)C)CC4)cc3c2C(C)C)cn2cnnc2c1C [Example 39, 2-(4-(2-(7,8-dimethyl-[1,2,4]triazolo [4,3-a]pyridin-6-yl)-3-isopropyl-1H-indol-5-yl)piperidin-1-yl)-N,N-dimethylacetamide]
4.5 | 104 | 7890 | Cc1cc(-c2[nH]c3ccc(C4CCN(Cc5ncn(C)n5)CC4)cc3c2C(C)C)c(C)n2cnnc12 [Example 40, 6-(3-isopropyl-5-(1-((1-methyl-1H-1,2,4-triazol-3-yl)methyl)piperidin-4-yl)-1H-indol-2-yl)-5,8-dimethyl-[1,2,4]triazolo[4,3-a]pyridine]
3.3 | 25.5 | 2850 | Cc1cc(-c2[nH]c3ccc(C4CCN(CCCC(F)(F)F)CC4)cc3c2C(C)C)c(C)n2cnnc12 [Example 41, 6-(3-isopropyl-5-(1-(4,4,4-trifluorobutyl)piperidin-4-yl)-1H-indol-2-yl)-5,8-dimethyl-[1,2,4]triazolo[4,3-a]pyridine]
6 | 32.5 | 3750 | Cc1cc(-c2[nH]c3ccc(C4CCN(CC(=O)N(C)C)CC4)cc3c2C(C)C)c(C)n2cnnc12 [Example 42, 2-(4-(2-(5,8-dimethyl-[1,2,4]triazolo[4,3-a]pyridin-6-yl)-3-isopropyl-1H-indol-5-yl)piperidin-1-yl)-N,N-dimethylacetamide]
3.2 | 1.8 | 6610 | Cc1c(-c2[nH]c3ccc(C4CCN(CCS(C)(=O)=O)CC4)cc3c2C(C)C)cn2cnnc2c1C [Example 43, 6-(3-isopropyl-5-(1-(2-(methylsulfonyl)ethyl)piperidin-4-yl)-1H-indol-2-yl)-7,8-dimethyl-[1,2,4]triazolo[4,3-a]pyridine]
6.5 | 1.7 | 1750 | Cc1c(-c2[nH]c3ccc(C4CCN(CCCC(F)(F)F)CC4)cc3c2C(C)C)cn2cnnc2c1C [Example 44, 6-(3-isopropyl-5-(1-(4,4,4-trifluorobutyl)piperidin-4-yl)-1H-indol-2-yl)-7,8-dimethyl-[1,2,4]triazolo[4,3-a]pyridine]
8.1 | 3.2 | 2310 | Cc1c(-c2[nH]c3ccc(C4CCN(Cc5ncn(C)n5)CC4)cc3c2C(C)C)cn2cnnc2c1C [Example 45, 6-(3-isopropyl-5-(1-((1-methyl-1H-1,2,4-triazol-3-yl)methyl)piperidin-4-yl)-1H-indol-2-yl)-7,8-dimethyl-[1,2,4]triazolo[4,3-a]pyridine]
8.6 | 2.1 | 8910 | Cc1c(-c2[nH]c3ccc(C4CCN(CCS(C)(=O)=O)CC4)cc3c2C(C)C)cn2cnnc2c1Cl [Example 46, 8-chloro-6-(3-isopropyl-5-(1-(2-(methylsulfonyl)ethyl)piperidin-4-yl)-1H-indol-2-yl)-7-methyl-[1,2,4]triazolo[4,3-a]pyridine]
21.9 | 3.8 | 2070 | Cc1c(-c2[nH]c3ccc(C4CCN(Cc5ncn(C)n5)CC4)cc3c2C(C)C)cn2cnnc2c1Cl [Example 47, 8-chloro-6-(3-isopropyl-5-(1-((1-methyl-1H-1,2,4-triazol-3-yl)methyl)piperidin-4-yl)-1H-indol-2-yl)-7-methyl-[1,2,4]triazolo[4,3-a] pyridine]
13.5 | 1.9 | 2570 | Cc1c(-c2[nH]c3ccc(C4CCN(CCCC(F)(F)F)CC4)cc3c2C(C)C)cn2cnnc2c1Cl [Example 48, 8-chloro-6-(3-isopropyl-5-(1-(4,4,4-trifluorobutyl)piperidin-4-yl)-1H-indol-2-yl)-7-methyl-[1,2,4]triazolo[4,3-a]pyridine]
31.1 | 1.5 | 957 | Cc1c(-c2[nH]c3ccc(C4CCN(CC(=O)N(C)C)CC4)cc3c2C(C)C)cn2cnnc2c1Cl [Example 49, 2-(4-(2-(8-chloro-7-methyl-[1,2,4]triazolo[4,3-a]pyridin-6-yl)-3-isopropyl-1H-indol-5-yl)piperidin-1-yl)-N,N-dimethylacetamide]
57 | 1.5 | 1090 | Cc1c(-c2[nH]c3ccc(C4CCN(CC#N)CC4)cc3c2C(C)C)cn2cnnc2c1Cl [Example 50, 2-(4-(2-(8-chloro-7-methyl-[1,2,4]triazolo[4,3-a]pyridin-6-yl)-3-isopropyl-1H-indol-5-yl)piperidin-1-yl)acetonitrile]
31.8 | 2.8 | 1000 | Cc1c(-c2[nH]c3ccc(C4CCN(CC#N)CC4)cc3c2C(C)C)cn2cnnc2c1C [Example 51, 2-(4-(2-(7,8-dimethyl-[1,2,4]triazolo[4,3-a]pyridin-6-yl)-3-isopropyl-1H-indol-5-yl)piperidin-1-yl)acetonitrile]

From patent publication US11130756B2, “[1,2,4]Triazolo[4,3-A]pyridinyl substituted indole compounds” (BRISTOL-MYERS SQUIBB COMPANY, priority 2017, dated 2021)
